System: MM.1S cell strain
Test: Inhibitory activity of cell strain (CellTiter-Glo)
Assay type: cell-based
Conditions: Homo sapiens, MM1.S, 72 h incubation
Outline: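 Cells seeded at 1×10^5 per well in RPMI1640 complete medium for 24 h, then treated 72 h at 37 °C, 5% CO2 with 3-fold dilutions, final 5×10^−7 M down to 2.29×10^−10 M. CellTiter-Glo luminescence; inhibition calculated against DMSO-only cells and medium-only blanks.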

Row | IC50 [nM] | SMILES
1 | ≤ 50 | Cc1ccc(C[C@H](NC(=O)C(C)C(=O)NCc2ccc(Cl)cc2Cl)B(O)O)cc1 (stereo partly drawn) [Example 59, ((1R)-1-(3-((2,4-dichlorobenzyl)amino)-2-methyl-3-oxopropionamido)-2-(p-tolyl)ethyl)boric acid]
2 | ≤ 50 | COc1cccc(CCNC(=O)C(C)C(=O)N[C@@H](Cc2coc3ccccc23)B(O)O)c1 (stereo partly drawn) [Example 63, ((1R)-2-(benzofuran-3-yl)-1-(3-((3-methoxyphenylethyl)amino)-2-methyl-3-oxopropionamido)ethyl)boric acid]
